The source of these data is patent US10882856B2 (BeiGene, Ltd., priority 2017, dated 2021).

Some results are limits rather than exact numbers.

Test [1] addresses T1, IDO1 (Homo sapiens, UniProt P14902). Kind of test: Hela cell-based IDO1 assay. The settings on record: Hela cells. In short, it runs like this: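 Kynurenine was measured at 480 nm in trichloroacetic acid-deproteinised supernatant after adding 2% 4-(dimethylamino)benzaldehyde. This supernatant came from HeLa cells seeded at 8000 per well in 96-well plates in phenol red-free DMEM with 10% FBS and, from 4 hours after seeding, exposed for 48 hours at 37 °C, 5% CO2 to DMSO-diluted compound dilutions, IFN-γ (final 100 ng/mL) and 0.4 mM L-Trp. The resulting data were fitted with a four-parameter logistic model in XLfit. Potency was taken from those fits.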

For test [2], the target named is T2, cellular TDO2 in HEK293-TDO2 cells (Homo sapiens, UniProt P48775).
T2 construct: expressed in transfected cells; host or cells: HEK293 (ATCC), stably transfected
T2 sequence (P48775 whole entry): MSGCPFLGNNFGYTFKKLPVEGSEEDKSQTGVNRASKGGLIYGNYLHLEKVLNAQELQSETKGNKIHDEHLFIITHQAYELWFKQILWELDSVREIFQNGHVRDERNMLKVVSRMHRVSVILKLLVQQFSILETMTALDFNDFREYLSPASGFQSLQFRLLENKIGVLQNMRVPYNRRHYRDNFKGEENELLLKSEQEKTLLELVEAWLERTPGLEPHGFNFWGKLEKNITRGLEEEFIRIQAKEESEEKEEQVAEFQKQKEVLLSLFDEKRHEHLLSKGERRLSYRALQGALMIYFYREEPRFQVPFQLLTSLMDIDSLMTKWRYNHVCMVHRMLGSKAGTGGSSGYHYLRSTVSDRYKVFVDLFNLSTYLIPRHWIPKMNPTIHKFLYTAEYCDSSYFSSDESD
Kind of test: 293-TDO2 cell-based assay (Kyn colorimetric). To be noted: 48 hours of incubation. The essentials: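 Kyn formed from L-Trp was read colorimetrically at 480 nm (TCA deproteinisation, then 2% 4-(dimethylamino)benzaldehyde). Compounds were added to 293-TDO2 cells 4 h post-seeding and left 48 h at 37° C. A four-parameter logistic model gave IC50 values.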

The target in test [3] is T1, IDO1. Kind of test: IDO1 enzymatic assay. The format is biochemical. Also noted: His tag (N); made in house; host or cells: E. coli. To be noted: read-out: Enzyme IC50 IDO1. In short, it runs like this: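 Recombinant IDO1 carrying an N-terminal His tag and purified from E. coli was used at 50 nM with test compound, 1.3 mM D-tryptophan, 5 mM L-ascorbic acid, methylene blue and 0.4 mg/mL catalase in 50 mM potassium phosphate pH 7.5 containing 0.1% BSA. This mixture was incubated at 24 °C for 1.5 hours, after which N'-formylkynurenine formation was followed continuously at 321 nm for 1 hour and activity was taken as the slope. IC50 was derived from the enzyme activity remaining as compound concentration increased.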

T1 sequence (P14902 whole entry): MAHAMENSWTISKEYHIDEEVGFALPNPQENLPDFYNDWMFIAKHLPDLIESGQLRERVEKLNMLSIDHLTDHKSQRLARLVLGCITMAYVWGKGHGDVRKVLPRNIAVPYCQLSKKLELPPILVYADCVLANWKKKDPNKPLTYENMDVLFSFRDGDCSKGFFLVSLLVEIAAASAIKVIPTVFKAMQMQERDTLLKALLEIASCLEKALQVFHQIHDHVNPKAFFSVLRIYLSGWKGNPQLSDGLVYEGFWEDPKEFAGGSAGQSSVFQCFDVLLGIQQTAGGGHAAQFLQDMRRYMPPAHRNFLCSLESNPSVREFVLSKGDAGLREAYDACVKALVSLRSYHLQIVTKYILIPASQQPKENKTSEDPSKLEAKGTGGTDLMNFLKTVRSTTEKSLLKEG

In the case of `OC(c1c(C2CC2)ccn2cncc12)C1CCC(c2cccc(Cl)c2)CC1` (stereo not drawn) [Example C133, (4-(3-chlorophenyl)cyclohexyl)(7-cyclopropylimidazo[1,5-a]pyridin-8-yl)methanol], the EC50 (commonly the concentration needed to bring the measured effect to its halfway point) is 256 nM on IDO1 [1] and more than 10 µM in test [2]. Besides, the IC50 (usually the concentration that inhibits the measured activity by half) at IDO1 [3] worked out at 88 nM.

Regarding `OC(c1c(C2CC2)ccn2cncc12)C1CCN(c2ccccc2)CC1` (stereo not drawn) [Example C136, (7-cyclopropylimidazo[1,5-a]pyridin-8-yl)(1-phenylpiperidin-4-yl)methanol], the figures for the half-maximal effective concentration (EC50) (on IDO1 [1]; in test [2]) were 29 nM and more than 10 µM, respectively. Also, the concentration for half-maximal inhibition (IC50) at IDO1 [3] stood at 74 nM.

Turning to `OC(c1c(C2CC2)ccn2cncc12)C1CCN(c2ccc(F)cc2)CC1` (stereo not drawn) [Example C137, (7-cyclopropylimidazo[1,5-a]pyridin-8-yl)(1-(4-fluorophenyl)piperidin-4-yl)methanol], the 50% effective concentration (EC50) on IDO1 [1] is 177 nM; in test [2], more than 10 µM. For the same molecule, the IC50 on IDO1 [3] is 79 nM.

For the molecule `OC(c1c(C2CC2)ccn2cncc12)C1CCN(c2cccc(F)c2)CC1` (stereo not drawn) [Example C138, (7-cyclopropylimidazo[1,5-a]pyridin-8-yl)(1-(3-fluorophenyl)piperidin-4-yl)methanol], the half-maximal effective concentration (EC50) at IDO1 [1] is 149 nM; in test [2], more than 10 µM. Besides, the IC50 on IDO1 [3] came out at 67 nM.

Turning to `OC(c1c(C2CC2)ccn2cncc12)C1CCN(C2CC2)CC1` (stereo not drawn) [Example C139, (7-cyclopropylimidazo[1,5-a]pyridin-8-yl)(1-cyclopropylpiperidin-4-yl)methanol], the EC50 on IDO1 [1] is more than 10000 nM; in test [2] it was more than 10 µM. Further, at IDO1 [3], the IC50 turned out to be 890 nM.

With `OC(c1c(C2CC2)ccn2cncc12)C1CCN(c2cccc(Cl)c2)CC1` (stereo not drawn) [Example C140, (1-(3-chlorophenyl)piperidin-4-yl)(7-cyclopropylimidazo[1,5-a]pyridin-8-yl)methanol], the half-maximal effective concentration (EC50) is 304 nM at IDO1 [1] and more than 10 µM in test [2]. The IC50 at IDO1 [3] turned out to be 140 nM.

`OC(c1c(C2CC2)ccn2cncc12)C1CCN(c2ccc(F)c(F)c2)CC1` (stereo not drawn) [Example C141, (7-cyclopropylimidazo[1,5-a]pyridin-8-yl)(1-(3,4-difluorophenyl)piperidin-4-yl)methanol]: the EC50 at IDO1 [1] is 105 nM; in test [2], more than 10 µM. Also, the IC50 on IDO1 [3] came out at 76 nM.

Turning to `COc1ccc(N2CCC(C(O)c3c(C4CC4)ccn4cncc34)CC2)cc1` (stereo not drawn) [Example C142, (7-cyclopropylimidazo[1,5-a]pyridin-8-yl)(1-(4-methoxyphenyl)piperidin-4-yl)methanol], the figures for the EC50 (at IDO1 [1]; in test [2]) were 267 nM and more than 10 µM, respectively. The half-inhibitory concentration (IC50) on IDO1 [3] was 32 nM.

As for `Oc1ccc(N2CCC(C(O)c3c(C4CC4)ccn4cncc34)CC2)cc1` (stereo not drawn) [Example C143], the EC50 at IDO1 [1] is 1100 nM; in test [2], more than 10 µM. On IDO1 [3], the IC50 was 130 nM.

With `N#Cc1ccc(N2CCC(C(O)c3c(C4CC4)ccn4cncc34)CC2)cc1` (stereo not drawn) [Example C144, 4-(4-((7-cyclopropylimidazo[1,5-a]pyridin-8-yl)(hydroxy)methyl)piperidin-1-yl)benzonitrile], the concentration for a half-maximal effect (EC50) was 748 nM at IDO1 [1] and more than 10 µM in test [2]. Also, on IDO1 [3], the IC50 was 40 nM.

Take `O=C(O)c1ccc(N2CCC(C(O)c3c(C4CC4)ccn4cncc34)CC2)cc1` (stereo not drawn) [Example C145, 4-(4-((7-cyclopropylimidazo[1,5-a]pyridin-8-yl)(hydroxy)methyl)piperidin-1-yl)benzoic acid]: the concentration giving a half-maximal response (EC50) on IDO1 [1] was more than 10000 nM; in test [2], more than 10 µM. Moreover, at IDO1 [3], the IC50 is 90 nM.

Turning to `OC(c1c(C2CC2)ccn2cncc12)C1CCN(c2ccccn2)CC1` (stereo not drawn) [Example C146, (7-cyclopropylimidazo[1,5-a]pyridin-8-yl)(1-(pyridin-2-yl)piperidin-4-yl)methanol], the 50% effective concentration (EC50) at IDO1 [1] is 2230 nM; in test [2], more than 10 µM. The IC50 at IDO1 [3] was 47 nM.

`OC(c1c(C2CC2)ccn2cncc12)C1CCN(c2ccncc2)CC1` (stereo not drawn) [Example C147, (7-cyclopropylimidazo[1,5-a]pyridin-8-yl)(1-(pyridin-4-yl)piperidin-4-yl)methanol]: the figures for the half-maximal effective concentration (EC50) (on IDO1 [1]; in test [2]) were more than 10000 nM and more than 10 µM, respectively. In addition, the IC50 on IDO1 [3] was 2300 nM.

`OC(c1c(C2CC2)ccn2cncc12)C1CCN(c2cccnc2)CC1` (stereo not drawn) [Example C148, (7-cyclopropylimidazo[1,5-a]pyridin-8-yl)(1-(pyridin-3-yl)piperidin-4-yl)methanol]: the values for the EC50 (on IDO1 [1]; in test [2]) were 1300 nM and more than 10 µM, respectively. Moreover, on IDO1 [3], the concentration for half-maximal inhibition (IC50) is 74 nM.

In the case of `OC(c1c(C2CC2)ccn2cncc12)C1CCN(c2ccc(F)c3ncccc23)CC1` (stereo not drawn) [Example C149, (7-cyclopropylimidazo[1,5-a]pyridin-8-yl)(1-(8-fluoroquinolin-5-yl)piperidin-4-yl)methanol], the values for the EC50 (on IDO1 [1]; in test [2]) were 42 nM and more than 10 µM, respectively. On IDO1 [3], the IC50 was determined as 40 nM.

On to `OC(c1c(C2CC2)ccn2cncc12)C1CCN(c2ccnc3ccccc23)CC1` (stereo not drawn) [Example C150, (7-cyclopropylimidazo[1,5-a]pyridin-8-yl)(1-(quinolin-4-yl)piperidin-4-yl)methanol], for which the figures for the concentration for a half-maximal effect (EC50) (at IDO1 [1]; in test [2]) were 1510 nM and more than 10 µM, respectively. For the same molecule, at IDO1 [3], the concentration for half-maximal inhibition (IC50) is 160 nM.

Take `OC(c1c(C2CC2)ccn2cncc12)C1CCN(c2ccnc3ccc(F)cc23)CC1` (stereo not drawn) [Example C151, (7-cyclopropylimidazo[1,5-a]pyridin-8-yl)(1-(6-fluoroquinolin-4-yl)piperidin-4-yl)methanol]: the concentration for a half-maximal effect (EC50) at IDO1 [1] is 373 nM; in test [2] it was more than 10 µM. The 50% inhibitory concentration (IC50) on IDO1 [3] was determined as 35 nM.

For the molecule `OC(c1c(C2CC2)ccn2cncc12)C1CCN(c2ccc(Cl)c3ncccc23)CC1` (stereo not drawn) [Example C154, (1-(8-chloroquinolin-5-yl)piperidin-4-yl)(7-cyclopropylimidazo[1,5-a]pyridin-8-yl)methanol], the concentration for a half-maximal effect (EC50) is 49 nM at IDO1 [1] and more than 10 µM in test [2]. In addition, the IC50 on IDO1 [3] worked out at 36 nM.

`OC(c1c(C2CC2)ccn2cncc12)C1CCN(c2ccc(F)c3cccnc23)CC1` (stereo not drawn) [Example C155, (7-cyclopropylimidazo[1,5-a]pyridin-8-yl)(1-(5-fluoroquinolin-8-yl)piperidin-4-yl)methanol]: the EC50 on IDO1 [1] was 149 nM; in test [2] it was more than 10 µM. The IC50 at IDO1 [3] was 61 nM.

In the case of `OC(c1c(C2CC2)ccc2cncn12)C1CCC(c2ccccc2)CC1` (stereo not drawn) [Example D101, (6-cyclopropylimidazo[1,5-a]pyridin-5-yl)(4-phenylcyclohexyl)methanol], the EC50 on IDO1 [1] was 100 nM; in test [2], more than 10 µM. Further, the IC50 at IDO1 [3] was 27 nM.

On to `COc1ccc(C2CCC(C(O)c3c(C4CC4)ccc4cncn34)CC2)cc1` (stereo not drawn) [Example D102, (6-cyclopropylimidazo[1,5-a]pyridin-5-yl)(4-(4-methoxyphenyl)cyclohexyl)methanol], for which the 50% effective concentration (EC50) on IDO1 [1] was 74 nM; in test [2], more than 10 µM. Also, the IC50 on IDO1 [3] is 23 nM.

Consider `OC(c1c(C2CC2)ccc2cncn12)C1CCC(c2ccc(Cl)cc2)CC1` (stereo not drawn) [Example D103, (4-(4-chlorophenyl)cyclohexyl)(6-cyclopropylimidazo[1,5-a]pyridin-5-yl)methanol], for which the EC50 on IDO1 [1] was 163 nM; in test [2] it was more than 10 µM. In addition, at IDO1 [3], the IC50 is 38 nM.

For `OC(c1c(C2CC2)ccc2cncn12)C1CCC(c2ccc(F)cc2)CC1` (stereo not drawn) [Example D104, (6-cyclopropylimidazo[1,5-a]pyridin-5-yl)(4-(4-fluorophenyl)cyclohexyl)methanol], the 50% effective concentration (EC50) at IDO1 [1] was 44 nM; in test [2] it was more than 10 µM. The IC50 on IDO1 [3] was found to be 33 nM.

For the molecule `OC(c1c(C2CC2)ccc2cncn12)C1CCC(c2ccc(OC(F)(F)F)cc2)CC1` (stereo not drawn) [Example D105, (6-cyclopropylimidazo[1,5-a]pyridin-5-yl)(4-(4-trifluoromethoxy)phenylcyclohexyl)methanol], the EC50 on IDO1 [1] is 869 nM; in test [2] it was more than 10 µM. Further, on IDO1 [3], the concentration for half-maximal inhibition (IC50) came out at 76 nM.

On to `Oc1ccc(C2CCC(C(O)c3c(C4CC4)ccc4cncn34)CC2)cc1` (stereo not drawn) [Example D106, 4-(4-((6-cyclopropylimidazo[1,5-a]pyridin-5-yl)(hydroxy)methyl)cyclohexyl)phenol], for which the figures for the EC50 (at IDO1 [1]; in test [2]) were 68 nM and more than 10 µM, respectively. Further, the IC50 on IDO1 [3] is 30 nM.

`Oc1ccc([C@H]2CC[C@H]([C@@H](O)c3c(C4CC4)ccc4cncn34)CC2)cc1` [Example D106b, 4-((1R,4r)-4-((R)-(6-cyclopropylimidazo [1,5-a]pyridin-5-yl)(hydroxy)methyl)cyclohexyl)phenol]: the concentration for a half-maximal effect (EC50) at IDO1 [1] was 2580 nM; in test [2] it was more than 10 µM. The concentration for half-maximal inhibition (IC50) at IDO1 [3] is 1100 nM.

Turning to `OC(c1c(C2CC2)ccc2cncn12)C1CCC(c2ccc(C(F)(F)F)nc2)CC1` (stereo not drawn) [Example D107, (6-cyclopropylimidazo[1,5-a]pyridin-5-yl)(4-(6-(trifluoromethyl)pyridin-3-yl)cyclohexyl)methanol], the 50% effective concentration (EC50) on IDO1 [1] is 1480 nM; in test [2] it was more than 10 µM. In addition, the half-inhibitory concentration (IC50) at IDO1 [3] is 30 nM.
